From US4500544A, “Ascochlorin derivatives, and pharmaceutical composition containing the same” (Chugai Seiyaku Kabushiki Kaisha, priority 1981, dated 1985)

What was measured:
Type in all cases: in vivo, ddY male mice
[1] = plasma glucose and cholesterol in normal mice fed the compounds (Example 19); settings: 0.1% in diet, one week, n=10; for total cholesterol in plasma: control 135.9 ± 4.8; for plasma glucose: control 271.6 ± 0.4
Method: Five-week-old ddY male mice (n=10) were given for one week a diet (CE-2 from Nippon Crea Co., Ltd.) containing 0.1% of the sample compounds of the present invention indicated in Table 1. Blood was then withdrawn from the heart and the glucose and cholesterol levels in plasma were measured.

Ehrlich ascites tumor = assay: life span of mice with Ehrlich ascites tumor (Example 22); settings: 2 mg i.p. once a day for 7 days; for Days survived: n=8, control 15.5 ± 2.12; for T/0 (%): control 100
Method: 10^6 Cells of Ehrlich ascites tumor were transplanted in five-week-old ddY male mice and from the 24th hour onward, they were injected intraperitoneally the compounds indicated in Table 4 of the present invention once a day for 7 consecutive days. Each injection contained 2 mg of the test compounds. The efficacy of the compounds is indicated in Table 4 in terms of their life span.

[2] = serum lipid and glucose in normal mice fed the compounds (Example 25); settings: for free fatty acid in serum / neutral fat in serum / total cholesterol in serum / serum glucose / lipid level in serum (in words): 0.05% in diet, one week; for free fatty acid in serum / neutral fat in serum / total cholesterol in serum / serum glucose: n=8; for free fatty acid in serum: control 25.3 ± 1.62; for neutral fat in serum: control 134.7 ± 8.6; for total cholesterol in serum: control 135.9 ± 4.8; for serum glucose: control 293.0 ± 13.3; for free fatty acid in serum, change / neutral fat in serum, change / serum glucose, change / total cholesterol in serum, change: vs control
Method: Five-week-old ddY male mice were given for one week a diet (CE-2 from Nippon Crea Co., Ltd.) containing 0.05% of the compounds of the present invention indicated in Table 7. On the 7th day, the mice were sacrificed and the levels of lipid and glucose in their serum were measured.

[3] = tested on: streptozotocin diabetic ddY mice; assay: streptozotocin-diabetic mice, diet with 0.1% compound (Example 21)
Method: Five-week-old ddY male mice were injected intraperitoneally with 130 mg/kg of streptozotocin. […] Each group was allowed to take the diet and drink water freely. One week later, the levels of glucose, insulin, free fatty acid in serum and glycogen in liver were measured.

Row | SMILES | total cholesterol in plasma [1] [mg/dL] | plasma glucose [1] [mg/dL] | Days survived (Ehrlich ascites tumor) [days] | T/0 (%) (Ehrlich ascites tumor) | free fatty acid in serum [2] [mg/dL] | neutral fat in serum [2] [mg/dL] | total cholesterol in serum [2] [mg/dL] | serum glucose [2] [mg/dL] | free fatty acid in serum, change [2] | neutral fat in serum, change [2] | serum glucose, change [2] [%] | total cholesterol in serum, change [2] | other results
1 | CC(/C=C/C1(C)C(C)CCC(=O)C1C)=C\Cc1c(O)c(C=O)c(C)c(Cl)c1OC(C)C(=O)O (centres unmarked) [Example 9] | 106.7 ± 5.5 | 210.0 ± 10.7 | > 28.8 ± 3.54 | 186 | – | – | – | – | – | – | – | – | –
2 | COC(=O)c1ccc(C(=O)Oc2c(Cl)c(C)c(C=O)c(O)c2C/C=C(C)/C=C/C2(C)C(C)CCC(=O)C2C)cc1 (centres unmarked) [Example 16, 4-O--(p-methoxycarbonyl)-benzoyl ascochlorin] | – | – | – | – | 21.8 ± 0.69 | 136.3 ± 8.1 | 129.6 ± 3.9 | 229.9 ± 17.0 | -15.9% | +1.2% | -21.5 | -4.6% | –
3 | CC(/C=C/C1(C)C(C)CCC(=O)C1C)=C\Cc1c(O)c(C=O)c(C)c(Cl)c1OC(=O)c1ccccn1 (centres unmarked) [Example 18, 4-O--picolinyl ascochlorin] | – | – | – | – | 23.5 ± 3.13 | 117.6 ± 6.8 | 138.4 ± 3.1 | 247.7 ± 9.0 | -7.1% | -12.7% | -15.5 | +1.8% | –
4 | CCOC(=O)C(C)Oc1c(Cl)c(C)c(C=O)c(O)c1C/C=C(C)/C=C/C1(C)C(C)CCC(=O)C1C (centres unmarked) [Example 5, 4-O-(1-ethoxycarbonylethyl) ester of ascochlorin] | 109.7 ± 5.0 | 205.7 ± 8.2 | > 19.1 ± 1.97 | 123 | – | – | – | – | – | – | – | – | –
5 | COc1ccc(C(=O)Oc2c(Cl)c(C)c(C=O)c(O)c2C/C=C(C)/C=C/C2(C)C(C)CCC(=O)C2C)cc1 (centres unmarked) [Example 15, 4-O--(p-methoxybenzoyl) ascochlorin] | – | – | – | – | 25.2 ± 1.89 | 141.4 ± 21.3 | 137.9 ± 4.1 | 199.3 ± 8.6 | -0.4% | +4.9% | -31.9 | +1.4% | –
6 | CC(/C=C/C1(C)C(C)CCC(=O)C1C)=C\Cc1c(O)c(C=O)c(C)c(Cl)c1OCCCC(=O)O (centres unmarked) [Example 10] | 115.7 ± 5.0 | 220.1 ± 6.8 | 19.3 ± 10.12 | 125 | – | – | – | – | – | – | – | – | –
7 | CCOC(=O)CCCOc1c(Cl)c(C)c(C=O)c(O)c1C/C=C(C)/C=C/C1(C)C(C)CCC(=O)C1C (centres unmarked) [Example 8, 4-O-(3-ethoxycarbonyl)propyl ester of ascochlorin] | 115.0 ± 6.6 | 255.5 ± 17.0 | – | – | – | – | – | – | – | – | – | – | –
8 | CCN(CC)C(=O)Oc1c(Cl)c(C)c(C=O)c(O)c1C/C=C(C)/C=C/C1(C)C(C)CCC(=O)C1C (centres unmarked) [Example 13, 4-O--diethylcarbamoyl ascochlorin] | – | – | – | – | 26.4 ± 0.58 | 110.2 ± 16.4 | 121.2 ± 5.0 | 215.2 ± 5.7 | +4.3% | -18.2% | -26.6 | -10.8% | –
9 | CC(/C=C/C1(C)C(C)CCC(=O)C1C)=C\Cc1c(O)c(C=O)c(C)c(Cl)c1OC(=O)c1ccncc1 (centres unmarked) [Example 17, 4-O-isonicotinoyl ascochlorin] | – | – | – | – | 20.3 ± 0.77 | 116.1 ± 13.8 | 113.5 ± 7.8 | 191.6 ± 13.2 | -19.8% | – | -34.6 | -16.5% | lipid level in serum (in words) [2]: could also reduce the lipid level in serum
10 | CCOC(=O)COc1c(Cl)c(C)c(C=O)c(O)c1C/C=C(C)/C=C/C1(C)C(C)CCC(=O)C1C (centres unmarked) [Example 1, 4-O-ethoxycarbonylmethylated ascochlorin] | 105.7 ± 3.0 | 208.3 ± 13.1 | 19.3 ± 5.77 | 125 | – | – | – | – | – | – | – | – | serum immunoreactive insulin ([3]; 0.1% in diet, one week, n=10, control 42.67 ± 4.61): 26.60 ± 2.78 μU/ml; serum free fatty acid ([3]; 0.1% in diet, one week, n=10, control 44.29 ± 2.05): 30.44 ± 1.22 mg/dL; serum glucose ([3]; 0.1% in diet, one week, n=10, control 337.7 ± 23.0): 250.6 ± 26.2 mg/dL; body weight after feeding ([3]; 0.1% in diet, one week, before feeding 25.5 ± 0.4, control after feeding 28.0 ± 0.5, ns): 27.0 ± 0.6 g/mouse; serum free fatty acid, change ([3]; vs control): -31.3%; serum glucose, change ([3]; vs control): -25.8%; serum immunoreactive insulin, change ([3]; vs control): -37.7%
11 | CC(/C=C/C1(C)C(C)CCC(=O)C1C)=C\Cc1c(O)c(C=O)c(C)c(Cl)c1OC(=O)COc1ccc(Cl)cc1 (centres unmarked) [Example 14, 4-O-(p-chlorophenoxy)acetyl ascochlorin] | – | – | – | – | 24.9 ± 0.48 | 99.4 ± 9.4 | 115.6 ± 9.8 | 209 ± 8.9 | -1.6% | -26.2% | -28.7 | -14.8% | lipid level in serum (in words) [2]: could also reduce the lipid level in serum
